Measurements from patent US20170122958A1, “Enzymes Functional Probes” (University of Dundee, priority 2013, published 2017).

Legend:
Brd2(1)*(Leu110-Ala) = Brd2(1)*(Leu110-Ala) (Homo sapiens, UniProt P25440, L110A); assay: DSF thermal shift; format: binding; parameters: Plasmids of the eight single BET bromodomain constructs Brd2(1), Brd2(2), Brd3(1), Brd3(2); His6 (N); made in house; host or cells: E. coli BL21(DE3); details: mutant
Experimental: (§1) DSF assays were performed on a LightCycler®480 from Roche or a Mx3005P Real Time PCR machine from Stratagene. […] SYPRO®Orange from Invitrogen Molecular Probes® was used as a reporter dye to monitor the denaturing process of the proteins. Samples were assayed on a 96-well plate with final protein concentrations of 2 μM for the LightCycler®480 and 6 μM for Mx3005P. Compounds were added at a final concentration of 10 μM for the LightCycler®480 and 30 μM for Mx3005P, while the tetra acetylated histone peptide was added to a final concentration of 100 μM and 300 μM respectively. […] The temperature was raised with a step of 0.6° C. per minute from 37° C. to 95° C. with the LightCycler®480 collecting 39 measurements per ° C., and 1° C. per minute from 25° C. to 95° C. with Mx3005P, collecting fluorescence readings at the end of each interval. Each sample was run in triplicates.
(§2) Collected data was analysed by IGOR Pro 6, a scientific software tool from Wave Metrics, Inc. Analysis was done following the recommendations of Niesen et al.. Fluorescence intensity was plotted as a function of temperature, generating a sigmoidal curve described by a two-state transition from folded to unfolded protein. Curves were fitted by the following sigmoidal equation: […]
(§3) A1 and A2 are the values of minimum and maximum intensities, respectively, x0 is the inflection point and dx is the rate. Fitted curves were differentiated in IGOR Pro 6 and the maximum of the first derivative was identified using the same program. These values correspond to the inflection points of the transition curves and thus to the melting temperatures of the proteins (Tm).

Brd2(1) Leu110-Ile = Brd2(1) Leu110-Ile (Homo sapiens, UniProt P25440, L110I); assay: DSF thermal shift; format: binding; parameters: Plasmids of the eight single BET bromodomain constructs Brd2(1), Brd2(2), Brd3(1), Brd3(2); His6 (N); made in house; host or cells: E. coli BL21(DE3); details: mutant
Chain of Brd2(1) Leu110-Ile (P25440 74-180 L110I limits assumed): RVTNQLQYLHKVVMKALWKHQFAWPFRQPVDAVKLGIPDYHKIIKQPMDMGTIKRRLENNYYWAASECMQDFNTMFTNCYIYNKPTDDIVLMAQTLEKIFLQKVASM
Experimental: as §1, §2, §3

Brd2(2)*(Leu383-Ala) = Brd2(2)*(Leu383-Ala) (Homo sapiens, UniProt P25440, L383A); assay: DSF thermal shift; format: binding; parameters: Plasmids of the eight single BET bromodomain constructs Brd2(1), Brd2(2), Brd3(1), Brd3(2); His6 (N); made in house; host or cells: E. coli BL21(DE3); details: mutant
Chain of Brd2(2)*(Leu383-Ala) (P25440 344-453 L383A limits assumed): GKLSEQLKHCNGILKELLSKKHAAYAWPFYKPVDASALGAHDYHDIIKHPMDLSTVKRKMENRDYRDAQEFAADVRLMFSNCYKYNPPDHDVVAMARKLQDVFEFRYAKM
Experimental: as §1, §2, §3

Brd2(2) Leu383-Ile = Brd2(2) Leu383-Ile (Homo sapiens, UniProt P25440, L383I); assay: DSF thermal shift; format: binding; parameters: Plasmids of the eight single BET bromodomain constructs Brd2(1), Brd2(2), Brd3(1), Brd3(2); His6 (N); made in house; host or cells: E. coli BL21(DE3); details: mutant
Chain of Brd2(2) Leu383-Ile (P25440 344-453 L383I limits assumed): as the sequence (P25440 344-453 L383A limits assumed) above, with A40I counted along it
Experimental: as §1, §2, §3

Brd2(2) = biological target: T1, Brd2(2) (Homo sapiens, UniProt P25440); assay: DSF thermal shift; format: binding; details: wild type
T1 construct: Plasmids of the eight single BET bromodomain constructs Brd2(1), Brd2(2), Brd3(1), Brd3(2); His6 (N); made in house; host or cells: E. coli BL21(DE3)
T1 sequence (P25440 344-453 limits assumed): as the sequence (P25440 344-453 L383A limits assumed) above, with A40L counted along it
Experimental: as §1, §2, §3

Brd2(1) = biological target: T2, Brd2(1) (Homo sapiens, UniProt P25440); assay: DSF thermal shift; format: binding; details: wild type
T2 construct: Plasmids of the eight single BET bromodomain constructs Brd2(1), Brd2(2), Brd3(1), Brd3(2); His6 (N); made in house; host or cells: E. coli BL21(DE3)
T2 sequence (P25440 74-180 limits assumed): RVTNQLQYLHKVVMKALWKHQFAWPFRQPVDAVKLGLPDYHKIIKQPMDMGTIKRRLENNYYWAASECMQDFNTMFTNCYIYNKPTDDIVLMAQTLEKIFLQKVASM
Experimental: as §1, §2, §3

Brd2(1)*(Met165-Leu) = biological target: T3, Brd2(1)*(Met165-Leu) (Homo sapiens, UniProt P25440, M165L); assay: DSF thermal shift; format: binding; details: mutant
T3 construct: Plasmids of the eight single BET bromodomain constructs Brd2(1), Brd2(2), Brd3(1), Brd3(2); His6 (N); made in house; host or cells: E. coli BL21(DE3)
T3 sequence (P25440 74-180 M165L limits assumed): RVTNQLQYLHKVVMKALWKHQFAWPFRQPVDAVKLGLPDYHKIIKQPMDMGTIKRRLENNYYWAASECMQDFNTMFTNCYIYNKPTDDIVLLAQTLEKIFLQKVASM
Experimental: (§4) DSF assays were performed on a LightCycler®480 from Roche or a Mx3005P Real Time PCR machine from Stratagene. Prior to DSF assays, frozen proteins were buffer exchanged using Vivaspin®6 concentrators with a 10 kDa cutoff on a Centrifuge 5430 from Eppendorf at a speed of 6000×g to remove glycerol and to buffer the proteins in 20 mM HEPES pH 7.5 at 25° C. and 100 mM NaCl. SYPRO®Orange from Invitrogen Molecular Probes® was used as a reporter dye to monitor the denaturing process of the proteins. Samples were assayed on a 96-well plate with final protein concentrations of 2 μM for the LightCycler®480 and 6 μM for Mx3005P. Compounds were added at a final concentration of 10 μM for the LightCycler®480 and 30 μM for Mx3005P, while the tetra acetylated histone peptide was added to a final concentration of 100 μM and 300 μM respectively. […] The temperature was raised with a step of 0.6° C. per minute from 37° C. to 95° C. with the LightCycler®480 collecting 39 measurements per ° C., and 1° C. per minute from 25° C. to 95° C. with Mx3005P, collecting fluorescence readings at the end of each interval. Each sample was run in triplicates.
as §2, §3

Brd2(2)*(Met438-Leu) = biological target: T4, Brd2(2)*(Met438-Leu) (Homo sapiens, UniProt P25440, M438L); assay: DSF thermal shift; format: binding; details: mutant
T4 construct: Plasmids of the eight single BET bromodomain constructs Brd2(1), Brd2(2), Brd3(1), Brd3(2); His6 (N); made in house; host or cells: E. coli BL21(DE3)
T4 sequence (P25440 344-453 M438L limits assumed): as the sequence (P25440 344-453 L383A limits assumed) above, with A40L, M95L counted along it
Experimental: as §4, §2, §3

Brd2(2)*(Met438-Ala) = biological target: T5, Brd2(2)*(Met438-Ala) (Homo sapiens, UniProt P25440, M438A); assay: DSF thermal shift; format: binding; details: mutant
T5 construct: Plasmids of the eight single BET bromodomain constructs Brd2(1), Brd2(2), Brd3(1), Brd3(2); His6 (N); made in house; host or cells: E. coli BL21(DE3)
T5 sequence (P25440 344-453 M438A limits assumed): as the sequence (P25440 344-453 L383A limits assumed) above, with A40L, M95A counted along it
Experimental: as §4, §2, §3

Solubility observations = details: observation in words
Brd2(1)*(Met165Ala) = Brd2(1)*(Met165Ala) (Homo sapiens, UniProt P25440, M165A); assay: DSF thermal shift; format: binding; parameters: Plasmids of the eight single BET bromodomain constructs Brd2(1), Brd2(2), Brd3(1), Brd3(2); His6 (N); made in house; host or cells: E. coli BL21(DE3); details: mutant
Chain of Brd2(1)*(Met165Ala) (P25440 74-180 M165A limits assumed): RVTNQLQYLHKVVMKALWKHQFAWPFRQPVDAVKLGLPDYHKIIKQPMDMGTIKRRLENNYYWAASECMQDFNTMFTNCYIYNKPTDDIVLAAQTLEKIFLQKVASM
Experimental: as §4, §2, §3

Brd4(1) = biological target: T6, Brd4(1) (Homo sapiens, UniProt O60885); assay: DSF thermal shift; format: binding; details: wild type
T6 construct: Plasmids of the eight single BET bromodomain constructs Brd2(1), Brd2(2), Brd3(1), Brd3(2), Brd4(1), Brd4(2), Brdt(1) and Brdt(2); His6 (N); made in house; host or cells: E. coli BL21(DE3)
Experimental: as §1, §2, §3

Brd4(2) = biological target: T7, Brd4(2) (Homo sapiens, UniProt O60885); assay: DSF thermal shift; format: binding; details: wild type
T7 construct: Plasmids of the eight single BET bromodomain constructs Brd2(1), Brd2(2), Brd3(1), Brd3(2), Brd4(1), Brd4(2), Brdt(1) and Brdt(2); His6 (N); made in house; host or cells: E. coli BL21(DE3)
Experimental: as §1, §2, §3

[1] = test system: WT and mutants (Leu to Ala, Leu to Val and Leu to Ile) of Brd2(2); assay: ITC of compound into protein (FIG. 16); format: binding, human; details: 250 μM compound into 25 μM protein; result in words
Experimental: To investigate the utility of the new compounds further, the inventors performed isothermal titration experiments by titrating 250 μM compound solutions (AL, ME-Am1, ET-Am1, ME-Am2, ET-Am2, 9-ME, 9-ET, 9-ME-Am1 and 9-ET-Am1) 25 μM protein solutions (WT and mutants (Leu to Ala, Leu to Val and Leu to Ile) of Brd2(2)).
ITC experiments were carried out on a ITC200 instrument from MicroCal™ Experiments were conducted at 3 different temperatures 15° C., 25° C. and 30° C., while stirring at 1000 rpm. Buffers of proteins, peptide and compounds were matched to 20 mM HEPES pH 7.5 at 25° C. and 100 mM NaCl. Frozen protein was buffer exchanged as described for the DSF experiments. Each titration comprised 1 initial injection of 0.4 μl lasting 0.8 s, followed by 19 injections of 2 μl lasting 4 s each at 2 min intervals. The initial injection was discarded during data analysis. Standard and reverse titrations were conducted depending on the binding partners.
All the data was fitted to a single binding site model using the Microcal LLC ITC200 Origin software provided by the manufacturer to yield enthalpies of binding (ΔH) and binding constants (Kas). Further thermodynamic parameters were calculated from these values (changes in entropy ΔS, changes in free energy AG and dissociation constants (Kds)).

Chain of Brd2(1)*(Leu110-Ala) (P25440 74-180 L110A limits assumed): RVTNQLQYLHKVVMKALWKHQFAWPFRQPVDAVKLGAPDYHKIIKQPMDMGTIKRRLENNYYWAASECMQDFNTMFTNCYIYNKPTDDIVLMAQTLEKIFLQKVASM

## COC(=O)[C@@H](C)[C@@H]1N=C(c2ccc(Cl)cc2)c2cc(OC)ccc2-n2c(C)nnc21 (racemic) [Compound 6, (+−)-methyl (S)-2-((S)-6-(4-chlorophenyl)-8-methoxy-1-methyl-4H-benzo[f][1,2,4]triazolo[4,3-a][1,4]diazepin-4-yl)propanoate]
Brd2(1)*(Leu110-Ala)
  Thermal stabilisation brd2(1)L110A: 1.6 ± 0.2 °C
  ΔTm Brd2(1)*(Leu110-Ala): 1.6 ± 0.2 K
Brd2(1) Leu110-Ile
  Thermal stabilisation brd2(1)L110I: 0.0 ± 0.5 °C
  ΔTm Brd2(1)*(Leu110-Ile): 0.0 ± 0.5 K
Brd2(2)*(Leu383-Ala)
  Thermal stabilisation brd2(2)L383A: 0.8 ± 0.6 °C
  ΔTm Brd2(2)*(Leu383-Ala): 0.8 ± 0.6 K
Brd2(2) Leu383-Ile
  Thermal stabilisation brd2(2)V383I (Table 1); Brd2(2) Leu383-Ile (text): 0.3 ± 0.2 °C
  ΔTm Brd2(2)*(Leu383-Ile): 0.3 ± 0.2 K
Brd2(2)
  Thermal stabilisation brd2(2): 0.2 ± 0.2 °C
  ΔTm Brd2(2): 0.2 ± 0.2 K
Brd2(1)
  Thermal stabilisation brd2(1): −0.3 ± 0.2 °C
  ΔTm Brd2(1): −0.3 ± 0.2 K

## COc1ccc(-c2ccc(S(=O)(=O)Nc3ccc4c(c3)CN(C)C(=O)N4)cc2)cc1 [Compound 50, 4′-methoxy-N-(3-methyl-2-oxo-1,2,3,4-tetrahydroquinazolin-6-yl)-[1,1′-biphenyl]-4-sulfonamide]
Brd2(2)
  ΔTm Brd2(2): 0.7 ± 0.2 K
Brd2(1)*(Met165-Leu)
  ΔTm Brd2(1)*(Met165-Leu): 1.7 ± 0.1 K
Brd2(2)*(Met438-Leu)
  ΔTm Brd2(2)*(Met165-Leu): 3.8 ± 0.2 K
Brd2(2)*(Met438-Ala)
  ΔTm Brd2(2)*(Met165-Ala): 4.1 ± 0.1 K
Solubility observations
  Solubility: solubility of the compound decreased
Brd2(1)*(Met165Ala)
  ΔTm Brd2(1)*(Met165-Ala): 5.3 ± 0.3 K

## CC[C@H](C(=O)OC)[C@@H]1N=C(c2ccc(Cl)cc2)c2cc(OC)ccc2-n2c(C)nnc21 (racemic) [Compound 14, (+−)-methyl (S)-2-((S)-6-(4-chlorophenyl)-8-methoxy-1-methyl-4H-benzo[f][1,2,4]triazolo[4,3-a][1,4]diazepin-4-yl)butanoate]
Brd2(1)*(Leu110-Ala)
  ΔTm Brd2(1)*(Leu110-Ala): 1.8 ± 0.4 K
Brd2(1) Leu110-Ile
  ΔTm Brd2(1)*(Leu110-Ile): 0.5 ± 0.0 K
Brd2(2)*(Leu383-Ala)
  ΔTm Brd2(2)*(Leu383-Ala): 2.4 ± 0.6 K
Brd2(2) Leu383-Ile
  ΔTm Brd2(2)*(Leu383-Ile): 0.9 ± 0.3 K
Brd4(1)
  ΔTm Brd4(1): 0.5 ± 0.1 K
Brd4(2)
  ΔTm Brd4(2): 0.1 ± 0.1 K
Brd2(2)
  ΔTm Brd2(2): 0.9 ± 0.4 K
Brd2(1)
  ΔTm Brd2(1): 1.0 ± 0.3 K

## COC(=O)CC1(C)N=C(c2ccc(Cl)cc2)c2cc(OC)ccc2-n2c(C)nnc21 (racemic) [Compound 5, (+−)-methyl 2-(6-(4-chlorophenyl)-8-methoxy-1,4-dimethyl-4H-benzo[f][1,2,4]triazolo[4,3-a][1,4]diazepin-4-yl)acetate]
Brd2(1)*(Leu110-Ala)
  Thermal stabilisation brd2(1)L110A: 2.9 ± 0.4 °C
  ΔTm Brd2(1)*(Leu110-Ala): 2.9 ± 0.4 K
Brd2(1) Leu110-Ile
  Thermal stabilisation brd2(1)L110I: 3.3 ± 0.4 °C
  ΔTm Brd2(1)*(Leu110-Ile): 3.3 ± 0.3 K
Brd2(2)*(Leu383-Ala)
  Thermal stabilisation brd2(2)L383A: 6.6 ± 0.4 °C
  ΔTm Brd2(2)*(Leu383-Ala): 6.6 ± 0.4 K
Brd2(2) Leu383-Ile
  Thermal stabilisation brd2(2)V383I (Table 1); Brd2(2) Leu383-Ile (text): 6.8 ± 0.1 °C
  ΔTm Brd2(2)*(Leu383-Ile): 6.8 ± 0.1 K
Brd2(2)
  Thermal stabilisation brd2(2): 5.3 ± 0.3 °C
  ΔTm Brd2(2): 5.3 ± 0.3 K
Brd2(1)
  Thermal stabilisation brd2(1): 2.2 ± 0.3 °C
  ΔTm Brd2(1): 2.2 ± 0.3 K

## COC(=O)[C@H](C)[C@@H]1N=C(c2ccc(Cl)cc2)c2ccc(OC)cc2-n2c(C)nnc21 (racemic) [Compound 9-ME, (+−) methyl (R)-2-((S)-6-(4-chlorophenyl)-9-methoxy-1-methyl-4H-benzo[f][1,2,4]triazolo[4,3-a][1,4]diazepin-4-yl)propanoate]
[1]
  Selectivity for Brd2(2) mutants relative to wild type by ITC (FIG. 16): higher selectivity for the mutants relative to wild types

## CCN(CC)C(=O)[C@H](C)[C@@H]1N=C(c2ccc(Cl)cc2)c2cc(OC)ccc2-n2c(C)nnc21 (racemic) [ME-Am2, (+−) (R)-2-((S)-6-(4-chlorophenyl)-8-methoxy-1-methyl-4H-benzo[f][1,2,4]triazolo[4,3-a][1,4]diazepin-4-yl)-N,N-diethylpropanamide]
[1]
  Selectivity for Brd2(2) mutants relative to wild type by ITC (FIG. 16): higher selectivity for the mutants relative to wild types
